The text below walks through data of PMC6553708 (PLoS ONE, 2019).

“And” between values parts separate entries of the source, which are not always exact repeats. Equal values may be shown once. Read-outs that look alike come from different tables or passages of the source.

Assay [1] has as its target T1, Mu Opioid Receptor (MOR) (Homo sapiens, UniProt P35372). Briefly: biochemical. The settings on record: for Emax: read-out: MOR EMAX (35S-GTPγS). On the technique in general: GTPγS resists hydrolysis and so accumulates on activated G proteins.
Assay [2] addresses T2, Serotonin Transporter (SERT) (Homo sapiens, UniProt P31645).
T2 construct: HA (N); host or cells: HEK293 (ATCC CRL-1573), electroporated, G418-selected population
Briefly: cell-based.

The target of the next assay is T3, Sigma-1 Receptor (σ1R) (Homo sapiens, UniProt Q99720).
T3 construct: HA (N); host or cells: HEK293 (ATCC CRL-1573), electroporated, G418-selected population; membranes used
T3 sequence (Q99720 whole entry): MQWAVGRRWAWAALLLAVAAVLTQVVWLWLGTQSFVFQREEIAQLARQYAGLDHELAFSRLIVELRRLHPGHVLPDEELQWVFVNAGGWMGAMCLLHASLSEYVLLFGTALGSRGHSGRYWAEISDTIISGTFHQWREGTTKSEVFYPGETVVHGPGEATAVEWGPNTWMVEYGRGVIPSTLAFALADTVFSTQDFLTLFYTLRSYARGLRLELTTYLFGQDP
Briefly: biochemical. The format is binding.

The target in assay [3] is T4, Cannabinoid Receptor Type 1 (CB1) (Homo sapiens, UniProt P21554).
T4 construct: membranes used
T4 sequence (P21554 whole entry): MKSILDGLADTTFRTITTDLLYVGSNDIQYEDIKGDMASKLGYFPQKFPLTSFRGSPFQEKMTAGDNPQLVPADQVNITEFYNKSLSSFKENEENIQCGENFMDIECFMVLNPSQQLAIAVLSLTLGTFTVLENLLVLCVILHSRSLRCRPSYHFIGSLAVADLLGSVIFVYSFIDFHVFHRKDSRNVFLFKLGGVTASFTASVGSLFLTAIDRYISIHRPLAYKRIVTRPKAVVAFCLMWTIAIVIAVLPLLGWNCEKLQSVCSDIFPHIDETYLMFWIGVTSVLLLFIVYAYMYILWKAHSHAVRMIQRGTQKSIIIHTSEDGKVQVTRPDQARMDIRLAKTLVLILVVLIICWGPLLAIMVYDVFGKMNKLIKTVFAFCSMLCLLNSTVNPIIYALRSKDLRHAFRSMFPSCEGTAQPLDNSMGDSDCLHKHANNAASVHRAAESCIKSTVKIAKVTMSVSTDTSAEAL
Kind of assay: biochemical.

The conditions of assay [4]: cited from earlier work.
The target of assay [5] is T5, Norepinephrine Transporter (NET) (Homo sapiens, UniProt P23975).
T5 construct: HA (N); host or cells: HEK293 (ATCC CRL-1573), electroporated, G418-selected population
T5 sequence (P23975 whole entry): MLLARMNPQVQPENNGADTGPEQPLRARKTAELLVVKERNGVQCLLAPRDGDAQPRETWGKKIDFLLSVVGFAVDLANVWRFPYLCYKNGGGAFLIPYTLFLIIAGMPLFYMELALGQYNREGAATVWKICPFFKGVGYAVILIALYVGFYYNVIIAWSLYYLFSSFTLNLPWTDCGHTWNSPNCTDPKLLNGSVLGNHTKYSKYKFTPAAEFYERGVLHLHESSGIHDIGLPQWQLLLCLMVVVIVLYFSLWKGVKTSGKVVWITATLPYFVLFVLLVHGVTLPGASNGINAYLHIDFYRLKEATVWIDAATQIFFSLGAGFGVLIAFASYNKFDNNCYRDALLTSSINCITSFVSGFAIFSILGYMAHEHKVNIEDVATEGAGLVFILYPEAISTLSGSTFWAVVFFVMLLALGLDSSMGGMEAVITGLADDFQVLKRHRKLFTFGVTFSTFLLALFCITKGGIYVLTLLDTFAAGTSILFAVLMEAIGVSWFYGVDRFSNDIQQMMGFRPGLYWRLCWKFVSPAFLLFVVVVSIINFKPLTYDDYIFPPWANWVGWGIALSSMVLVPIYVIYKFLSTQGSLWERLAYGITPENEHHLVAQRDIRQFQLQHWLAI
Briefly: cell-based. The settings on record: for Emax at 10 µM: read-out: NET IMAX, in parentheses: maximum efficacy at 10 μM.

Assay [6] has as its target T6, Delta Opioid Receptor (DOR) (Homo sapiens, UniProt P41143).
T6 construct: 3X-hemagglutinin (HA) (N); expressed in transfected cells; membranes used
The format is biochemical.

In assay [7] the target is T7, Kappa Opioid Receptor (KOR) (Homo sapiens, UniProt P41145).
T7 construct: membranes used
T7 sequence (P41145 whole entry): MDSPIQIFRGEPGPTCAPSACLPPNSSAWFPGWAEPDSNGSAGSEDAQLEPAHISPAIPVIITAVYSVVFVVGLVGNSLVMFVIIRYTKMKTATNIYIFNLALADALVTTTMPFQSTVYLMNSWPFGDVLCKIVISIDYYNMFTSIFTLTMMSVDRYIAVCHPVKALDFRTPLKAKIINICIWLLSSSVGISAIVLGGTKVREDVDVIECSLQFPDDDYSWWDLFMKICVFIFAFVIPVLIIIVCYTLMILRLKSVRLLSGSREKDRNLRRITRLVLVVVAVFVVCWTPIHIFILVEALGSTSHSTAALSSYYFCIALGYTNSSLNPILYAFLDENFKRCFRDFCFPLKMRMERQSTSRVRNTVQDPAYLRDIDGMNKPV
Briefly: biochemical. The settings on record: for Emax at 10 µM: read-out: KOR EMAX, in parentheses: maximum efficacy at 10 μM.

Assay [8] addresses T7, Kappa Opioid Receptor (KOR). Kind of assay: biochemical. The format is binding.
Assay [9] shares this target. The format is biochemical.
A further assay deals with MOR. To be noted: cited from earlier work.
The next assay relates to CD-1 mice. To be noted: male CD-1 mice.
Assay [10] concerns the target T1, Mu Opioid Receptor (MOR). Kind of assay: biochemical. It counts as binding.
The target of assay [11] is T8, Dopamine Transporter (DAT) (Homo sapiens, UniProt Q01959).
T8 construct: HA (N); host or cells: HEK293 (ATCC CRL-1573), electroporated, G418-selected population
T8 sequence (Q01959 whole entry): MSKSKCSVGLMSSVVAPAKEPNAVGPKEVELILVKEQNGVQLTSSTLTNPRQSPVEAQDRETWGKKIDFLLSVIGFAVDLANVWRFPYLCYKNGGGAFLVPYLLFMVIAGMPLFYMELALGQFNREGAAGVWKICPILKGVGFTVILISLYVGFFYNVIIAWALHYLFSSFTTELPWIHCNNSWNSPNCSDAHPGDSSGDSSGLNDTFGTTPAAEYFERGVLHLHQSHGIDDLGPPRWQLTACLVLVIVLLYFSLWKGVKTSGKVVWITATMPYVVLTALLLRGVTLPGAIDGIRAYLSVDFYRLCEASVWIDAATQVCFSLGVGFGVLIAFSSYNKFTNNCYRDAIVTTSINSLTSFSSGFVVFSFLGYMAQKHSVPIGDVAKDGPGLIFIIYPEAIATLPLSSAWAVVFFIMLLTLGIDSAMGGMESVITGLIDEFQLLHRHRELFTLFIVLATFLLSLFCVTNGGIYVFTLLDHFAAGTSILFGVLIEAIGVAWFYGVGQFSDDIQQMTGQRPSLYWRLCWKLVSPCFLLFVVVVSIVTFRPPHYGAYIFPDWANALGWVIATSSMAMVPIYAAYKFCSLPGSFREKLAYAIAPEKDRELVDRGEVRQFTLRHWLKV
Briefly: cell-based. It counts as cell-based. The settings on record: for Emax at 10 µM: read-out: DAT IMAX, in parentheses: maximum efficacy at 10 μM.

The target of assay [12] is T2, Serotonin Transporter (SERT). Kind of assay: biochemical. It counts as binding.
The target in assay [13] is T8, Dopamine Transporter (DAT). Kind of assay: biochemical. The format is binding.

T1 sequence (P35372 whole entry): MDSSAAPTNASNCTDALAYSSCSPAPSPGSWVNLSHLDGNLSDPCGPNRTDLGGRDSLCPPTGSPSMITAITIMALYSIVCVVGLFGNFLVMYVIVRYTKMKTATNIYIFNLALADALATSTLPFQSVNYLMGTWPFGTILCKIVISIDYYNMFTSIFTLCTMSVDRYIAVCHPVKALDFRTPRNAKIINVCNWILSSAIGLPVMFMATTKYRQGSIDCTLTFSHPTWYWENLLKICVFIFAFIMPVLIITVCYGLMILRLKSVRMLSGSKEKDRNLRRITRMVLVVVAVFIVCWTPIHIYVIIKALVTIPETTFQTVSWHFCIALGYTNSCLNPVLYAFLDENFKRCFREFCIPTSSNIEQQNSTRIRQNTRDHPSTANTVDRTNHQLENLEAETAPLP
T6 sequence (P41143 whole entry): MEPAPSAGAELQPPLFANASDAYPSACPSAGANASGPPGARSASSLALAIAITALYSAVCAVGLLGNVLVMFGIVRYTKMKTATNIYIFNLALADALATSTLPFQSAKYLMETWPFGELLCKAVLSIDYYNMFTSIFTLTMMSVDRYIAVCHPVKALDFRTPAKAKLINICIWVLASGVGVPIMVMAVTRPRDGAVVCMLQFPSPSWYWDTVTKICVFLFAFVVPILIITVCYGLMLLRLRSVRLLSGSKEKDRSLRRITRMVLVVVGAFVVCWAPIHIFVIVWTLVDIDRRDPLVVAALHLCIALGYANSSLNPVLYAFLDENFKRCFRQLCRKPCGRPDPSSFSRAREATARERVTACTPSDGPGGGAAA
T2 sequence (P31645 whole entry): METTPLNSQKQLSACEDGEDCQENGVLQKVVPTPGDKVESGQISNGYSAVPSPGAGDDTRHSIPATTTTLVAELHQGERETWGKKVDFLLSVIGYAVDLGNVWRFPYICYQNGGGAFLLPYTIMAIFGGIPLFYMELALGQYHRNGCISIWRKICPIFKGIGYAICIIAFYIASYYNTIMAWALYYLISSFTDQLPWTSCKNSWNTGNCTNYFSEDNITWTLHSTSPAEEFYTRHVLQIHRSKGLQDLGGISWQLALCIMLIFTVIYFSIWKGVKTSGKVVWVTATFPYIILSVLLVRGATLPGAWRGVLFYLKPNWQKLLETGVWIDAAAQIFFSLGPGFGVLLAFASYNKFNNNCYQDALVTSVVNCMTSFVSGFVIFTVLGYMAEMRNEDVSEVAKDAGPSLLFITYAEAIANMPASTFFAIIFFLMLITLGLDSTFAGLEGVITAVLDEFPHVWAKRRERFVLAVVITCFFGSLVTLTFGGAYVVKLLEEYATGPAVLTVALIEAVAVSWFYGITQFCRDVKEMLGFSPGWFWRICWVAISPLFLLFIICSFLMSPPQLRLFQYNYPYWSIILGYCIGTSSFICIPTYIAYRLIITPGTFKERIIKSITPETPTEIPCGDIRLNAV

`NC(=O)[C@H](Cc1ccccc1)NC(=O)[C@H](Cc1ccccc1)NC(=O)[C@@H]1CCCN1C(=O)[C@@H](N)Cc1ccc(O)cc1` [Endomorphin-2]: the Emax at Mu Opioid Receptor (MOR) [1] was 97 ± 2%.
Take `Fc1ccc(C(OCCN2CCN(CCCc3ccccc3)CC2)c2ccc(F)cc2)cc1` [GBR12909]: the “SERT IMAX (transporter assay)” value in assay [2] is 100 ± 0.4%.
As to `COc1ccc2c3c1O[C@H]1C(=O)CC[C@H]4[C@@H](C2)N(C)CC[C@]314` [Hydrocodone], on Sigma-1 Receptor (σ1R), the Ki was 4 ± 1.3 µM and the “Potential new finding: σ1R binding (in words)” value was “KOR partial agonist; CB1 partial agonist; σ1R binding”.
For `CN1CC[C@]23c4c5ccc(O)c4O[C@H]2[C@@H](O)C=C[C@H]3[C@H]1C5` [Morphine], in assay [3], the 50% effective concentration (EC50) is above 2 µM and the “Potential new finding: activity at CB1 (in words)” value is reported as “CB1 partial agonist”. Moreover, the Emax at 10 µM in assay [3] (read-out: CB1 EMAX, in parentheses: maximum efficacy at 10 μM) is above 41.5%. In addition, in [4] (ref [13]–[15]), the “operational efficacy τ in vivo” value was 20–39 and 39.
Take `CN(C)C[C@H]1CCCC[C@]1(O)c1cccc(O)c1` [O-Desmethyl-Tramadol, O-desmethyl-tramadol]: the “NET IMAX, in parentheses: maximum efficacy at 10 μM” value in assay [5] is “(29) %”. Moreover, the half-inhibitory concentration (IC50) in [5] (read-out: NET IC50 (transporter assay)) was above 2 µM. In addition, in assay [6], the “DOR EMAX (35S-GTPγS)” value amounted to 38 ± 14% and the “Potential new finding: activity at DOR (in words)” value is “DOR/KOR partial agonist”. Further, the EC50 in [6] (read-out: DOR EC50 (35S-GTPγS)) is 0.361 µM and 0.36 µM. In addition, in assay [7], the “KOR EMAX, in parentheses: maximum efficacy at 10 μM” value was “(5.9) %” and the “Potential new finding: activity at KOR (in words)” value was “DOR/KOR partial agonist”. Further, in [7] (read-out: KOR EC50 (35S-GTPγS)), the EC50 was above 2 µM. Besides, in assay [8] (read-out: Target Binding Affinity Determined by Competition Radioligand Binding–KI, KOR), the Ki is above 2 µM.
Consider `COc1ccc2c3c1O[C@H]1C(=O)CC[C@@]4(O)[C@@H](C2)N(C)CC[C@]314` [Oxycodone], for which the Emax at Mu Opioid Receptor (MOR) [1] amounted to 90 ± 8%. Also, the “KOR antagonist activity (in words)” value in assay [9] was “no KOR antagonist activity”. Further, in assay [7], the Emax at 10 µM was 9.6%. In addition, the “operational efficacy τ in vitro” value with MOR is 3.3–5.2. Further, the “operational efficacy τ in vivo” value in assay [4] is 20–39.
Regarding `CNCC[C@H](Oc1cccc2ccccc12)c1cccs1` [S-Duloxetine, S-duloxetine], the “AUC increase of buprenorphine anti-nociception (tail flick)” value in the assay on CD-1 mice (duloxetine 20 mg/kg intraperitoneal 10 minutes before buprenorphine 0.2 mg/kg subcutaneous, 52°C water, 2 hour time course) turned out to be 50.6%. In addition, the “Effect on oxymorphone anti-nociception (tail flick)” value in the assay on CD-1 mice (duloxetine 20 mg/kg intraperitoneal 10 minutes before oxymorphone 0.3 mg/kg subcutaneous, p > 0.05) is “no effect”. Further, the “Effect on tail flick baselines” value in the assay with CD-1 mice (duloxetine 20 mg/kg intraperitoneal alone (followed by vehicle)) is “no effect”.
Take `CC[C@@H](c1cccc(O)c1)[C@@H](C)CN(C)C` [Tapentadol]: the IC50 in assay [2] was above 2 µM; in assay [11], above 10 µM; in [5], above 2 µM. Also, the Emax at 10 µM in [2] (read-out: SERT IMAX, in parentheses: maximum efficacy at 10 μM) amounted to 68%; in assay [11], 19%; in assay [5], 61%; in assay [7] it was 13%. In addition, the Ki at Mu Opioid Receptor (MOR) [10] is 2.1 ± 0.084 µM; in assay [12] it was above 2 µM; in assay [13], above 2 µM; on Sigma-1 Receptor (σ1R), 2.6 ± 0.41 µM; in assay [8] it was above 2 µM. For the same molecule, the EC50 on Mu Opioid Receptor (MOR) [1] (MOR EC50 (35S-GTPγS)) is 1.3 ± 0.53 µM; in assay [7] (KOR EC50 (35S-GTPγS)), above 2 µM. For the same molecule, on Mu Opioid Receptor (MOR) [1], the Emax came out at 73 ± 7%. In [7], the “Potential new finding: activity at KOR (in words)” value was “KOR partial agonist; σ1R binding”. In addition, the “Potential new finding: σ1R binding (in words)” value at Sigma-1 Receptor (σ1R) is on record as “KOR partial agonist; σ1R binding”. For the same molecule, the “σ1R binding affinity fold vs. MOR affinity” value at Sigma-1 Receptor (σ1R) was “nearly the same affinity as the MOR and approximately equal affinity to MOR and same”.
Turning to `COc1cccc(C2(O)CCCCC2CN(C)C)c1` (stereo not shown) [Tramadol], in assay [11], the concentration for half-maximal inhibition (IC50) was above 10 µM and the Emax at 10 µM was 22%. Besides, on Mu Opioid Receptor (MOR) [1], the “MOR EMAX (35S-GTPγS)” value worked out at 26 ± 6% and the Emax was 25.5%. The Emax at 10 µM in assay [5] was found to be 57%. The inhibitory constant (Ki) in assay [13] is above 2 µM. Further, in [9], the “KOR antagonist activity (in words)” value is given as “no KOR antagonist activity”. The molecule also gave a Ki in assay [8] of 0.89 ± 0.033 µM.
For `CCC(=O)C(CC(C)N(C)C)(c1ccccc1)c1ccccc1` (stereo not shown) [methadone], the “operational efficacy τ in vivo” value in [4] is 39.
For Buprenorphine, in [2], the “Potential new finding: activity at SERT (in words)” value was “CB1 inverse agonist; Monoamine transporter activator” and the “SERT IMAX, in parentheses: maximum efficacy at 10 μM” value is on record as “(-20) %”. For the same molecule, in assay [11], the “DAT IMAX, in parentheses: maximum efficacy at 10 μM” value is reported as “(-67) %”; the DAT transport activation came out at 67.2%; the “Potential new finding: activity at DAT (in words)” value is “CB1 inverse agonist; Monoamine transporter activator”. In addition, in assay [5], the “NET IMAX, in parentheses: maximum efficacy at 10 μM” value was “(-26) %” and the “Potential new finding: activity at NET (in words)” value is recorded as “CB1 inverse agonist; Monoamine transporter activator”. Also, in assay [3], the “CB1 EMAX, in parentheses: maximum efficacy at 10 μM” value was “(-38) %” and the “Potential new finding: activity at CB1 (in words)” value was “CB1 inverse agonist; Monoamine transporter activator”.

A word on the Ki: it is the dissociation constant of the complex between target and ligand, obtained from inhibition or displacement. As a reminder, the EC50 is the midpoint of the concentration-response curve. What is called IC50 is the concentration needed to halve the response being measured.
